Test results as given in patent publication US10167297B2, “Substituted pyridine compounds having herbicidal activity” (BASF SE, priority 2014, dated 2019).

Assays:
Assay type in all cases: in vivo
Chenopodium album = experiment: greenhouse post-emergence herbicidal activity (use examples); conditions: CHEAL, scale 0 to 100
Excerpt: (§1) The seeds of the test plants were sown separately for each species. For the pre-emergence treatment, the active ingredients, which had been suspended or emulsified in water, were applied directly after sowing by means of finely distributing nozzles. The containers were irrigated gently to promote germination and growth and subsequently covered with transparent plastic hoods until the plants had rooted. This cover caused uniform germination of the test plants, unless this had been impaired by the active ingredients. For the post-emergence treatment, the test plants were first grown to a height of 3 to 15 cm, depending on the plant habit, and only then treated with the active ingredients which had been suspended or emulsified in water. For this purpose, the test plants were either sown directly and grown in the same containers, or they were first grown separately as seedlings and transplanted into the test containers a few days prior to treatment. Depending on the species, the plants were kept at 10-25° C. or 20-35° C., respectively. The test period extended over 2 to 4 weeks. During this time, the plants were tended, and their response to the individual treatments was evaluated. Evaluation was carried out using a scale from 0 to 100. 100 means no emergence of the plants, or complete destruction of at least the aerial moieties, and 0 means no damage, or normal course of growth. A good herbicidal activity is given at values of at least 70 and a very good herbicidal activity is given at values of at least 85. The plants used in the greenhouse experiments were of the following species: [table]

Amaranthus retroflexus = experiment: as above; conditions: AMARE, scale 0 to 100
Excerpt: as §1

Echinocloa crus-galli [1] = experiment: as above; conditions: Echinochloa crus-galli, ECHCG, scale 0 to 100; for pest or weed control at 125 g/ha: 0.125 kg/ha; for pest or weed control at 31 g/ha: 0.031 kg/ha; for pest or weed control at 250 g/ha: 0.25 kg/ha
Excerpt: as §1

Zea mays [2] = experiment: greenhouse post-emergence herbicidal activity on crop plant corn (use examples); conditions: ZEAMX (corn, crop plant), scale 0 to 100; for plant injury at 125 g/ha: 0.125 kg/ha; for plant injury at 31 g/ha: 0.031 kg/ha; for plant injury at 250 g/ha: 0.25 kg/ha
Excerpt: as §1

Setaria viridis [3] = experiment: greenhouse post-emergence herbicidal activity (use examples); conditions: SETVI, scale 0 to 100
Excerpt: as §1

Lolium Multiflori = experiment: comparative greenhouse post-emergence herbicidal activity; conditions: LOLMU, 20 days, scale 0 to 100
Method: (§2) The herbicidal activity of the compounds I-5 (N-[2,6-dichloro-3-(8-hydroxy-6,6-dioxo-5H-thiopyrano[4,3-b]pyridin-7-yl)phenyl]-N-methyl-acetamide) and 1-19 (Methyl N-[2,6-dichloro-3-(8-hydroxy-5,5-dimethyl-6,6-dioxo-thiopyrano[4,3-b]pyridin-7-yl)phenyl]-N-methyl-carbamate) according to this invention was tested in comparison with compound I-5 disclosed on page 147 of WO 2012/084755 A1 (not of the invention). These comparative experiments were performed in greenhouse by using the following procedure:
(§3) The culture containers used were plastic flowerpots containing loamy sand with approximately 3.0% of humus as the substrate. The seeds of the test plants were sown separately for each species.
(§4) For the post-emergence treatment, the test plants were first grown to a height of 3 to 15 cm, depending on the plant habit, and only then treated with the active ingredients which had been suspended or emulsified in water using a volume of 375 I/ha and 1% of an Adjuvant. For this purpose, the test plants were either sown directly and grown in the same containers, or they were first grown separately as seedlings and transplanted into the test containers a few days prior to treatment.
(§5) Depending on the species, the plants were kept at 10-25° C. (cold season grasses) or 20-35° C. (warm season grasses), respectively.
(§6) The test period extended over 20 days. During this time, the plants were tended, and their response to the individual treatments was evaluated.
(§7) Evaluation was carried out using a scale from 0 to 100. 100 means complete destruction of at least the aerial moieties, and 0 means no damage, or normal course of growth. A good herbicidal activity is given at values of at least 70 and a very good herbicidal activity is given at values of at least 85.
(§8) The plants used in the greenhouse experiments were of the following species:
(§9) The application rates in the post-emergence treatment were 0.1, 0.05 and 0.025 kg/ha, respectively.

Digitaria sanguine = experiment: as above; conditions: DIGSA, 20 days, scale 0 to 100
Method: as §2, §3, §4, §5, §6, §7, §8, §9

Abuthilon avicennae = experiment: as above; conditions: ABUTH, 20 days, scale 0 to 100
Method: as §2, §3, §4, §5, §6, §7, §8, §9

Avena Fatua = experiment: as above; conditions: AVEFA, 20 days, scale 0 to 100
Method: as §2, §3, §4, §5, §6, §7, §8, §9

Setaria viridis [4] = experiment: as above; conditions: SETVI, 20 days, scale 0 to 100
Method: as §2, §3, §4, §5, §6, §7, §8, §9

Echinocloa crus-galli [5] = experiment: as above; conditions: ECHCG, 20 days, scale 0 to 100
Method: as §2, §3, §4, §5, §6, §7, §8, §9

Polygonum convolvulus = experiment: as above; conditions: POLCO, 20 days, scale 0 to 100
Method: as §2, §3, §4, §5, §6, §7, §8, §9

Ambrosia artimisifolio = experiment: as above; conditions: AMBEL, 20 days, scale 0 to 100
Method: as §2, §3, §4, §5, §6, §7, §8, §9

Bromus steliris = experiment: as above; conditions: BROST, 20 days, scale 0 to 100
Method: as §2, §3, §4, §5, §6, §7, §8, §9

Zea mays [6] = experiment: comparative greenhouse post-emergence herbicidal activity on crop plant corn; conditions: ZEAMX (corn, crop plant), 20 days, scale 0 to 100
Method: as §2, §3, §4, §5, §6, §7, §8, §9

CC(=O)N(C)c1c(Cl)ccc(C2=C(OC(=O)C(C)(C)C)c3ncccc3C(C)(C)S2(=O)=O)c1Cl [Compound I-8, [7-[3-[acetyl(methyl)amino]-2,4-dichloro-phenyl]-5,5-dimethyl-6,6-dioxo-thiopyrano[4,3-b]pyridin-8-yl] 2,2-dimethylpropanoate]
Herbicidal activity (Chenopodium album; 0.125 kg/ha): 100 | Herbicidal activity (Amaranthus retroflexus; 0.125 kg/ha): 98 | pest or weed control at 125 g/ha (Echinocloa crus-galli [1]): 98% | plant injury at 125 g/ha (Zea mays [2]): 30%

CC(=O)N(C)c1c(Cl)ccc(C2=C(O)c3ncc(F)cc3CS2(=O)=O)c1Cl [Compound I-11, N-[2,6-dichloro-3-(3-fluoro-8-hydroxy-6,6-dioxo-5H-thiopyrano[4,3-b]pyridin-7-yl)phenyl]-N-methyl-acetamide]
Herbicidal activity (Chenopodium album; 0.031 kg/ha): 90 | Herbicidal activity (Setaria viridis [3]; 0.031 kg/ha): 90 | pest or weed control at 31 g/ha (Echinocloa crus-galli [1]): 90% | plant injury at 31 g/ha (Zea mays [2]): 15%

O=C1CCCN1c1c(Cl)ccc(C2=C(O)c3ncccc3CS2(=O)=O)c1Cl [Compound I-1, 1-[2,6-dichloro-3-(8-hydroxy-6,6-dioxo-5H-thiopyrano[4,3-b]pyridin-7-yl)phenyl]pyrrolidin-2-one]
Herbicidal activity (Chenopodium album; 0.25 kg/ha): 100 | Herbicidal activity (Amaranthus retroflexus; 0.25 kg/ha): 100 | pest or weed control at 250 g/ha (Echinocloa crus-galli [1]): 100% | plant injury at 250 g/ha (Zea mays [2]): 0%

CC(=O)N(C)c1c(Cl)ccc(C2=C(OC(=O)C(C)(C)C)c3ncccc3CS2(=O)=O)c1Cl [Compound I-7, [7-[3-[acetyl(methyl)amino]-2,4-dichloro-phenyl]-6,6-dioxo-5H-thiopyrano[4,3-b]pyridin-8-yl] 2,2-dimethylpropanoate]
Herbicidal activity (Chenopodium album; 0.25 kg/ha): 100 | Herbicidal activity (Amaranthus retroflexus; 0.25 kg/ha): 95 | pest or weed control at 250 g/ha (Echinocloa crus-galli [1]): 98% | plant injury at 250 g/ha (Zea mays [2]): 20%

CC(=O)N(C)c1c(Cl)ccc(C2=C(OC(=O)C(C)(C)C)c3ncc(F)cc3C(C)(C)S2(=O)=O)c1Cl [Compound I-13, [7-[3-[acetyl(methyl)amino]-2,4-dichloro-phenyl]-3-fluoro-5,5-dimethyl-6,6-dioxo-thiopyrano[4,3-b]pyridin-8-yl] 2,2-dimethylpropanoate]
Herbicidal activity (Amaranthus retroflexus; 0.125 kg/ha): 90 | Herbicidal activity (Setaria viridis [3]; 0.125 kg/ha): 85 | pest or weed control at 125 g/ha (Echinocloa crus-galli [1]): 95% | plant injury at 125 g/ha (Zea mays [2]): 15%

CC(=O)N(C)c1c(Cl)ccc(C2=C(O)c3ncccc3CS2(=O)=O)c1Cl [Compound I-5, N-[2,6-dichloro-3-(8-hydroxy-6,6-dioxo-5H-thiopyrano[4,3-b]pyridin-7-yl)phenyl]-N-methyl-acetamide]
Herbicidal activity (Lolium Multiflori; 0.025 kg/ha): 25 | Herbicidal activity (Lolium Multiflori; 0.05 kg/ha): 55 | Herbicidal activity (Lolium Multiflori; 0.1 kg/ha): 80 | Herbicidal activity (Digitaria sanguine; 0.025 kg/ha): 90 | Herbicidal activity (Digitaria sanguine; 0.05 kg/ha): 95 | Herbicidal activity (Digitaria sanguine; 0.1 kg/ha): 100 | Herbicidal activity (Abuthilon avicennae; 0.025 kg/ha): 70 | Herbicidal activity (Abuthilon avicennae; 0.05 kg/ha): 80 | Herbicidal activity (Abuthilon avicennae; 0.1 kg/ha): 90 | Herbicidal activity (Avena Fatua; 0.025 kg/ha): 55 | Herbicidal activity (Avena Fatua; 0.05 kg/ha): 85 | Herbicidal activity (Avena Fatua; 0.1 kg/ha): 90 | Herbicidal activity (Setaria viridis [4]; 0.025 kg/ha): 90 | Herbicidal activity (Setaria viridis [4]; 0.05 kg/ha): 90 | Herbicidal activity (Setaria viridis [4]; 0.1 kg/ha): 90 | Herbicidal activity (Echinocloa crus-galli [5]; 0.025 kg/ha): 90 | Herbicidal activity (Echinocloa crus-galli [5]; 0.05 kg/ha): 100 | Herbicidal activity (Echinocloa crus-galli [5]; 0.1 kg/ha): 100 | Herbicidal activity (Polygonum convolvulus; 0.025 kg/ha): 35 | Herbicidal activity (Polygonum convolvulus; 0.05 kg/ha): 45 | Herbicidal activity (Polygonum convolvulus; 0.1 kg/ha): 80 | Herbicidal activity (Ambrosia artimisifolio; 0.025 kg/ha): 90 | Herbicidal activity (Ambrosia artimisifolio; 0.05 kg/ha): 100 | Herbicidal activity (Ambrosia artimisifolio; 0.1 kg/ha): 95 | Herbicidal activity (Bromus steliris; 0.025 kg/ha): 98 | Herbicidal activity (Bromus steliris; 0.05 kg/ha): 98 | Herbicidal activity (Bromus steliris; 0.1 kg/ha): 98 | Herbicidal activity (Chenopodium album; 0.125 kg/ha): 98 | Herbicidal activity (Amaranthus retroflexus; 0.125 kg/ha): 98 | pest or weed control at 125 g/ha (Echinocloa crus-galli [1]): 95% | Herbicidal activity (Zea mays [6]; 0.025 kg/ha): 15 | Herbicidal activity (Zea mays [6]; 0.05 kg/ha): 45 | plant injury at 125 g/ha (Zea mays [2]): 10%

CC(=O)N(C)c1c(Cl)ccc(C2=C(O)c3ncc(F)cc3C(C)(C)S2(=O)=O)c1Cl [Compound I-14, N-[2,6-dichloro-3-(3-fluoro-8-hydroxy-5,5-dimethyl-6,6-dioxo-thiopyrano[4,3-b]pyridin-7-yl)phenyl]-N-methyl-acetamide]
Herbicidal activity (Amaranthus retroflexus; 0.125 kg/ha): 98 | Herbicidal activity (Setaria viridis [3]; 0.125 kg/ha): 100 | pest or weed control at 125 g/ha (Echinocloa crus-galli [1]): 98% | plant injury at 125 g/ha (Zea mays [2]): 30%

CC(=O)N(C)c1c(Cl)ccc(C2=C(O)c3ncccc3C(C)(C)S2(=O)=O)c1Cl [Compound I-6, N-[2,6-dichloro-3-(8-hydroxy-5,5-dimethyl-6,6-dioxo-thiopyrano[4,3-b]pyridin-7-yl)phenyl]-N-methyl-acetamide]
Herbicidal activity (Setaria viridis [3]; 0.060 kg/ha): 90 | pest or weed control at 60 g/ha (Echinocloa crus-galli [1]; 0.060 kg/ha): 90% | plant injury at 60 g/ha (Zea mays [2]; 0.060 kg/ha): 30%

CC(=O)N(C)c1c(Cl)ccc(C2=C(OC(=O)C(C)(C)C)c3ncc(F)cc3CS2(=O)=O)c1Cl [Compound I-12, [7-[3-[acetyl(methyl)amino]-2,4-dichloro-phenyl]-3-fluoro-6,6-dioxo-5H-thiopyrano[4,3-b]pyridin-8-yl] 2,2-dimethylpropanoate]
Herbicidal activity (Chenopodium album; 0.031 kg/ha): 90 | Herbicidal activity (Setaria viridis [3]; 0.031 kg/ha): 75 | pest or weed control at 31 g/ha (Echinocloa crus-galli [1]): 85% | plant injury at 31 g/ha (Zea mays [2]): 15%
